The subject of data set [1] is Lygaeidae. The experiment in a line: Insecticidal activity against first generation Blissus occiduus in buffalograss under field condition assessed as reduction in number at 9.6 kg/ha measured 8 days after treatment. It is filed as functional, organism-based.
For data set [2], the system named is Lygaeidae. The experiment in a line: Insecticidal activity against second generation Blissus occiduus in buffalograss under field condition assessed as reduction in number at 9.6 kg/ha measured 3 days after treatment. Type of data set: functional, organism-based.
Data set [3] has as its system Lygaeidae. The data set is described as follows: Insecticidal activity against first generation Blissus occiduus in buffalograss under field condition assessed as reduction in number at 9.6 kg/ha measured 106 days after treatment. It is filed as functional, organism-based.
Data set [4] concerns Lygaeidae. The experiment in a line: Insecticidal activity against second generation Blissus occiduus in buffalograss under field condition assessed as reduction in number at 9.6 kg/ha measured 28 days after treatment. It is filed as functional, organism-based.
The test system of data set [5] is Lygaeidae. The experiment in a line: Insecticidal activity against first generation Blissus occiduus in buffalograss under field condition assessed as reduction in number at 9.6 kg/ha measured 3 days after treatment. Type of data set: functional, organism-based.
Data set [6] deals with Lygaeidae. The experiment in a line: Insecticidal activity against second generation Blissus occiduus in buffalograss under field condition assessed as reduction in number at 9.6 kg/ha measured 7 days after treatment. Type of data set: functional, organism-based.
The subject of data set [7] is Lygaeidae. The experiment in a line: Insecticidal activity against second generation Blissus occiduus in buffalograss under field condition assessed as reduction in number at 9.6 kg/ha measured 55 days after treatment. Type of data set: functional, organism-based.
Data set [8] deals with Urochloa mutica. The data set is described as follows: Drug level in […] (buffalo grass) measured per gram of fresh weight at 19.1 kg/ha measured 7 days after treatment. It is filed as ADME, organism-based. Conditions: in vivo, 168 h.
Data set [9] relates to Lygaeidae. The experiment in a line: Insecticidal activity against first generation Blissus occiduus in buffalograss under field condition assessed as reduction in number at 89.7 kg/ha measured 3 days after treatment. Type of data set: functional, organism-based.
Data set [10] has as its system Lygaeidae. The data set is described as follows: Insecticidal activity against second generation Blissus occiduus in buffalograss under field condition assessed as reduction in number at 89.7 kg/ha measured 55 days after treatment. It is filed as functional, organism-based.
In data set [11] the test system is Urochloa mutica. The data set is described as follows: Drug level in […] (buffalo grass) measured per gram of fresh weight at 19.1 kg/ha measured 3 days after treatment. It is filed as ADME, organism-based. The following applies: in vivo, 72 h.
For data set [12], the system named is Lygaeidae. The data set is described as follows: Insecticidal activity against first generation Blissus occiduus in buffalograss under field condition assessed as reduction in number at 89.7 kg/ha measured 106 days after treatment. It is filed as functional, organism-based.
The subject of data set [13] is Lygaeidae. The experiment in a line: Insecticidal activity against second generation Blissus occiduus in buffalograss under field condition assessed as reduction in number at 89.7 kg/ha measured 28 days after treatment. It is filed as functional, organism-based.
For data set [14], the system named is Lygaeidae. The data set is described as follows: Insecticidal activity against second generation Blissus occiduus in buffalograss under field condition assessed as reduction in number at 89.7 kg/ha measured 3 days after treatment. Type of data set: functional, organism-based.
The subject of data set [15] is Lygaeidae. The data set is described as follows: Insecticidal activity against first generation Blissus occiduus in buffalograss under field condition assessed as reduction in number at 89.7 kg/ha measured 8 days after treatment. It is filed as functional, organism-based.
Data set [16] relates to Urochloa mutica. The experiment in a line: Drug level in […] (buffalo grass) measured per gram of fresh weight at 19.1 kg/ha measured 14 days after treatment. It is filed as ADME, organism-based. The following applies: in vivo, 336 h.
For data set [17], the system named is Urochloa mutica. The experiment in a line: Drug level in […] (buffalo grass) measured per gram of fresh weight at 19.1 kg/ha measured 28 days after treatment. It is filed as ADME, organism-based. Conditions: in vivo, 672 h.
For data set [18], the system named is Lygaeidae. The experiment in a line: Insecticidal activity against second generation Blissus occiduus in buffalograss under field condition assessed as reduction in number at 89.7 kg/ha measured 7 days after treatment. It is filed as functional, organism-based.
Data set [19] concerns Urochloa mutica. The experiment in a line: Drug level in […] (buffalo grass) measured per gram of fresh weight at 89.7 kg/ha measured 7 days after treatment. It is filed as ADME, organism-based. The following applies: in vivo, 168 h.
The test system of data set [20] is Urochloa mutica. The data set is described as follows: Drug level in […] (buffalo grass) measured per gram of fresh weight at 89.7 kg/ha measured 3 days after treatment. Conditions: in vivo, 72 h. Type of data set: ADME, organism-based.
Data set [21] has as its system Urochloa mutica. The experiment in a line: Drug level in […] (buffalo grass) measured per gram of fresh weight at 89.7 kg/ha measured 28 days after treatment. It is filed as ADME, organism-based. The following applies: in vivo, 672 h.
Data set [22] concerns Urochloa mutica. The experiment in a line: Drug level in […] (buffalo grass) measured per gram of fresh weight at 89.7 kg/ha measured 14 days after treatment. It is filed as ADME, organism-based. The following applies: in vivo, 336 h.
Data set [23] deals with Lygaeidae. The experiment in a line: Insecticidal activity against second generation Blissus occiduus in buffalograss under field condition assessed as reduction in number at 19.1 kg/ha measured 28 days after treatment. Type of data set: functional, organism-based.
Data set [24] relates to Urochloa mutica. The data set is described as follows: Drug level in […] (buffalo grass) measured per gram of fresh weight at 9.6 kg/ha measured 7 days after treatment. Conditions: in vivo, other, 168 h. It is filed as ADME, organism-based.
In data set [25] the test system is Lygaeidae. The data set is described as follows: Insecticidal activity against first generation Blissus occiduus in buffalograss under field condition assessed as reduction in number at 19.1 kg/ha measured 3 days after treatment. Type of data set: functional, organism-based.
The subject of data set [26] is Lygaeidae. The experiment in a line: Insecticidal activity against second generation Blissus occiduus in buffalograss under field condition assessed as reduction in number at 19.1 kg/ha measured 3 days after treatment. It is filed as functional, organism-based.
The test system of data set [27] is Urochloa mutica. The experiment in a line: Drug level in […] (buffalo grass) measured per gram of fresh weight at 9.6 kg/ha measured 14 days after treatment. It is filed as ADME, organism-based. Conditions: in vivo, 336 h.
The subject of data set [28] is Lygaeidae. The experiment in a line: Insecticidal activity against first generation Blissus occiduus in buffalograss under field condition assessed as reduction in number at 19.1 kg/ha measured 8 days after treatment. It is filed as functional, organism-based.
Data set [29] concerns Urochloa mutica. The experiment in a line: Drug level in […] (buffalo grass) measured per gram of fresh weight at 9.6 kg/ha measured 3 days after treatment. Type of data set: ADME, organism-based. Conditions: in vivo, 72 h.
In data set [30] the test system is Lygaeidae. The experiment in a line: Insecticidal activity against second generation Blissus occiduus in buffalograss under field condition assessed as reduction in number at 19.1 kg/ha measured 55 days after treatment. Type of data set: functional, organism-based.
For data set [31], the system named is Lygaeidae. The data set is described as follows: Insecticidal activity against first generation Blissus occiduus in buffalograss under field condition assessed as reduction in number at 19.1 kg/ha measured 106 days after treatment. It is filed as functional, organism-based.
Data set [32] relates to Lygaeidae. The experiment in a line: Insecticidal activity against second generation Blissus occiduus in buffalograss under field condition assessed as reduction in number at 19.1 kg/ha measured 7 days after treatment. Type of data set: functional, organism-based.

The source made the active and inactive calls. The calls are words filed in the database; no cut-off is given here.

As for `O=[N+]([O-])/N=C1\NCCN1Cc1ccc(Cl)nc1`, the result in the data set on Lygaeidae [1], in the data set on Lygaeidae [5], with Lygaeidae [6] and in the data set on Lygaeidae [7] was Active. Besides, the outcome with Lygaeidae [2], with Lygaeidae [3] and with Lygaeidae [4] was inactive.
Take `CN/C(=N\[N+](=O)[O-])NCc1cnc(Cl)s1` [CLOTHIANIDINE]: the Drug uptake in the data set with Urochloa mutica [8] was 1.56 µg/g. Also, the outcome with Lygaeidae [9], in the data set with Lygaeidae [10], with Lygaeidae [12], in the data set with Lygaeidae [13], in the data set on Lygaeidae [14] and in the data set on Lygaeidae [15] was Active. The outcome in the data set on Lygaeidae [18] was Active. Besides, the drug content in the data set with Urochloa mutica [11] was found to be 6.48 µg/g; in the data set on Urochloa mutica [16], 0.66 µg/g; in the data set with Urochloa mutica [17], 0.19 µg/g.
As to `O=[N+]([O-])NC1=NCCN1Cc1ccc(Cl)nc1` [IMIDACLOPRID], the drug content with Urochloa mutica [19] came to 3.25 µg/g; in the data set on Urochloa mutica [20], 14.2 µg/g; in the data set with Urochloa mutica [21], 0.2 µg/g; in the data set with Urochloa mutica [22], 0.77 µg/g.
For the molecule `CN1COCN(Cc2cnc(Cl)s2)/C1=N\[N+](=O)[O-]` [THIAMETHOXAM], the outcome in the data set on Lygaeidae [23], in the data set with Lygaeidae [25], with Lygaeidae [28], with Lygaeidae [30] and in the data set on Lygaeidae [32] was Active. Besides, the drug content was determined as 0.6 µg/g in the data set on Urochloa mutica [24], 0.16 µg/g with Urochloa mutica [27] and 6.2 µg/g in the data set on Urochloa mutica [29]. For the same molecule, the outcome with Lygaeidae [26] and in the data set with Lygaeidae [31] was inactive.
